Legend:
Type in all cases: cell-based
[1] = target: T1, human recombinant prostanoid EP4 receptor (Homo sapiens, UniProt P35408); assay: FLIPR Ca2+ signaling, PG antagonist activity, EP4; conditions: antagonism of standard agonist PGE2, HEK-293 EBNA stable cells with chimeric Gqs
T1 construct: expressed in transfected cells; co-transfected with chimeric Gqs-HA
Description: (§1) The above compounds were tested for PG antagonist activity as follows using human recombinant prostanoid receptor (DP1, EP1-4, FP, IP and TP) stable cell lines:
(§2) In order to measure the response of Gs and Gi coupled prostanoid receptors as a Ca^2+ signal, chimeric G protein cDNAs were used. Stable cell lines over-expressing human prostanoid DP1, EP1-4, FP, IP, and TP receptors were established as follows:
(§3) Briefly, human prostanoid DP1, EP2, and EP4 receptor cDNAs were co-transfected with chimeric Gqs cDNA containing a haemagglutanin (HA) epitope; human prostanoid EP3 receptors were co-transfected with chimeric Gqi-HA; human EP1, FP, IP, and TP receptor cDNAs were expressed with no exogenous G-proteins. Gqs and Gqi chimeric cDNAs (Molecular Devices, Sunnyvale, Calif., U.S.A.), as well as cDNAs of prostanoid receptors, were cloned into a pCEP4 vector with a hygromycin B selection marker. Transfection into HEK-293 EBNA (Epstein-Barr virus nuclear antigen) cells was achieved by the FuGENE 6 transfection Reagent (Roche Applied Science, Indianapolis, Ind., USA). Stable transfectants were selected according to hygromycin resistance. Because Gqs and Gqi contained an HA epitope, G-protein expression was detected by Western blotting analysis using anti-mouse HA monoclonal antibody and horseradish peroxidase (HRP)-conjugated secondary antibody, while functional expression of prostanoid receptors was detected by FLIPR screening (Matias et al., 2004). These stable cell lines were validated using previously published antagonists at 10 μM against serial dilutions of standard agonists by FLIPR functional assays for Ca^2− Signaling (as described below).
(§4) Ca^2+ signaling studies were performed using a FLIPR TETRA system (Molecular Devices, Sunnyvale, Calif., USA) in the 384-format. This is a high-throughput instrument for cell-based assays to monitor Ca^2+ signaling associated with GPCRs and ion channels. Cells were seeded at a density of 5×10^4 cells/well in BioCoat poly-D-lysine coated, black wall, clear bottom 384-well plates (BD Biosciences, Franklin lakes, N.J., USA) and allowed to attach overnight in an incubator at 37° C. The cells were then washed twice with HBSS-HEPES buffer (Hanks' balanced salt solution without bicarbonate and phenol red, 20 mM HEPES, pH 7.4) using an ELx405 Select CW Microplate Washer (BioTek, Winooski, Vt., USA). After 60 min of dye-loading in the dark using the Ca^2+-sensitive dye Fluo-4AM (Invitrogen, Carlsbad, Calif., USA), at a final concentration of 2×10^−6M, the plates were washed 4 times with HBSS-HEPES buffer to remove excess dye and leaving 50 μl of buffer in each well. The plates were then placed in the FLIPR TETRA instrument and allowed to equilibrate at 37° C. AGN-211377 was added in a 25 μl volume to each well to give final concentrations of 0.1 μM, 0.3 μM, 1 μM, 3 μM, 10 μM, and 30 μM; or 0.067 μM, 0.1 μM, 0.2 μM, 0.3 μM, 0.67 μM, and 1 μM for cells over-expressing TP receptors. After 4.5 minutes, a 7-point serial dilution of the standard agonist for the corresponding receptor, in a 25 μl volume was injected at the final concentrations from 10^−11M to 10^−5M in 10-fold serial dilution increments for cells expressing human recombinant DP1, EP1, EP2, EP3, EP4, FP, and IP receptors. The dose range for the standard agonist for human recombinant TP receptors was from 10^−12M to 10^−6M. HBSS-HEPES buffer was used as the negative control for the standard agonists. Cells were excited with LED (light emitting diode) excitation at 470-495 nm and emission was measured through an emission filter at 515-575 nm. Assay plates were read for 3.5 minutes using the FLIPR^TETRA. The peak increase in fluorescence intensity was recorded for each well. On each plate, negative controls, dose response of positive controls, and co-treatments of antagonist-agonist for each dose were in triplicates. Standard agonists were as follows: DP=BW 245C, EP1-EP4=PGE2, FP=17-phenyl-PGF2α, IP=Cicaprost, and TP=U-46619. […]

[2] = target: T2, human recombinant prostanoid EP3 receptor (Homo sapiens, UniProt P43115); assay: FLIPR Ca2+ signaling, PG antagonist activity, EP3; conditions: antagonism of standard agonist PGE2, HEK-293 EBNA stable cells with chimeric Gqi
T2 construct: expressed in transfected cells; co-transfected with chimeric Gqi-HA
T2 sequence (P43115 1-390): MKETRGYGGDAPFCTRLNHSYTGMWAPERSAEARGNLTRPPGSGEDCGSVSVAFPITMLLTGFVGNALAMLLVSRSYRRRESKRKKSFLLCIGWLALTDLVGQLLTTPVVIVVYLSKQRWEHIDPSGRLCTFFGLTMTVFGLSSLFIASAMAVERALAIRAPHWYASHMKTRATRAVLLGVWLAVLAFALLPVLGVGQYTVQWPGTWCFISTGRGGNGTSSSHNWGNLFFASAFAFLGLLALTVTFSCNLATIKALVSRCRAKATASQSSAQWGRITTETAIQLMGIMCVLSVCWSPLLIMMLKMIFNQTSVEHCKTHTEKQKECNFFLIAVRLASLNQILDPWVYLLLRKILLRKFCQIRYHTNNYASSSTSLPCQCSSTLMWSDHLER
Description: as §1, §2, §3, §4

[3] = target: T3, human recombinant prostanoid FP receptor (Homo sapiens, UniProt P43088); assay: FLIPR Ca2+ signaling, PG antagonist activity, FP; conditions: antagonism of standard agonist 17-phenyl-PGF2α, HEK-293 EBNA stable cells
T3 construct: expressed in transfected cells
T3 sequence (P43088 whole entry): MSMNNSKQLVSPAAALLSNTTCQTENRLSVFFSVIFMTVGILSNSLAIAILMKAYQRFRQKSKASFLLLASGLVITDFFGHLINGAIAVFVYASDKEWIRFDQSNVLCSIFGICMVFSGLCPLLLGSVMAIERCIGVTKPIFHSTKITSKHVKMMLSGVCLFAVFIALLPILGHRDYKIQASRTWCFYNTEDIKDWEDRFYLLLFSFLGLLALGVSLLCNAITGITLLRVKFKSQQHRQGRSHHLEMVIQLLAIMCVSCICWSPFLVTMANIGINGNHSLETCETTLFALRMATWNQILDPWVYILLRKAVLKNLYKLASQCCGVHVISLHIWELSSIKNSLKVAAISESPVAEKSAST
Description: as §1, §2, §3, §4

[4] = target: T4, human recombinant prostanoid DP1 receptor (Homo sapiens, UniProt Q13258); assay: FLIPR Ca2+ signaling, PG antagonist activity, DP; conditions: antagonism of standard agonist BW 245C, HEK-293 EBNA stable cells with chimeric Gqs
T4 construct: expressed in transfected cells; co-transfected with chimeric Gqs-HA
T4 sequence (Q13258 1-359): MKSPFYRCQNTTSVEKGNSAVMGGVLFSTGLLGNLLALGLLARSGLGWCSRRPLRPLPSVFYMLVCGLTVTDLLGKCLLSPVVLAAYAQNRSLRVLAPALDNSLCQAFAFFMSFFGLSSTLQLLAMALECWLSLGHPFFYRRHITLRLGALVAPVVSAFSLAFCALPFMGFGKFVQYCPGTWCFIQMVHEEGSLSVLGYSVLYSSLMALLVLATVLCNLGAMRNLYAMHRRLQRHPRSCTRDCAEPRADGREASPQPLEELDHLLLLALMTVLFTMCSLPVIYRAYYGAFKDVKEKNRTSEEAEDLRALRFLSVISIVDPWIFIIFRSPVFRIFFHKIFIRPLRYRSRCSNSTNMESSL
Description: as §1, §2, §3, §4

[5] = target: T5, human recombinant prostanoid IP receptor (Homo sapiens, UniProt P43119); assay: FLIPR Ca2+ signaling, PG antagonist activity, IP; conditions: antagonism of standard agonist Cicaprost, HEK-293 EBNA stable cells
T5 construct: expressed in transfected cells
T5 sequence (P43119 whole entry): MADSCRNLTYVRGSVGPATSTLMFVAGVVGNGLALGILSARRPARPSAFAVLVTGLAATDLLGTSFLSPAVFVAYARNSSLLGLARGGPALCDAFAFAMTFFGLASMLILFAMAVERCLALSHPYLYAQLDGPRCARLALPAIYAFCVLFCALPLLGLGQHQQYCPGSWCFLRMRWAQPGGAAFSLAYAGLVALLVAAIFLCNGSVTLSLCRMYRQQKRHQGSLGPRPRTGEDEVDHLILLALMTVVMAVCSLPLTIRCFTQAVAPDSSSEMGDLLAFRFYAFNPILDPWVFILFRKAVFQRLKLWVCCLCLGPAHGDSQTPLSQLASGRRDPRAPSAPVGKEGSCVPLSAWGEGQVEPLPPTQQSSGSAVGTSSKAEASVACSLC
Description: as §1, §2, §3, §4

T1 sequence (P35408 whole entry): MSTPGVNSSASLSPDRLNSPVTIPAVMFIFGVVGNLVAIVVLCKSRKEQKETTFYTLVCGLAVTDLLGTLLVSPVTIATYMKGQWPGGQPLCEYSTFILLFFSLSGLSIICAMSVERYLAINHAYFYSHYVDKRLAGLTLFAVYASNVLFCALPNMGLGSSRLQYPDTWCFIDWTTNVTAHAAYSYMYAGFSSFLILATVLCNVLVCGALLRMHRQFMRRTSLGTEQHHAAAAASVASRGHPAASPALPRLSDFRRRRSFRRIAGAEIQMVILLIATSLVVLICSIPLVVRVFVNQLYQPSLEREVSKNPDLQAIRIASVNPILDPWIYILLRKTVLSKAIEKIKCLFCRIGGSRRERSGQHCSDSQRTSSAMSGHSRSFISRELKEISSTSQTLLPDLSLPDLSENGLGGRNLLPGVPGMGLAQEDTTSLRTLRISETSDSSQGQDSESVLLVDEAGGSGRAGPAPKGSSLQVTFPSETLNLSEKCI

SMILES	Kb [1] [nM]	Kb [2] [nM]	Kb [3] [nM]	Kb [4] [nM]	Kb [5] [nM]
CCC(CC)COc1ccc(Br)cc1Cn1ncc(CC(=O)O)c1C [Example 1, {1-[5-bromo-2-(2-ethyl-butoxy)-benzyl]-5-methyl-1H-pyrazol-4-yl}-acetic acid]	100	≥ 10000	2700	400	4800
CCC(CC)COc1ccc(Br)cc1Cn1ncc(C(=O)O)c1C [Example 2, 1-[5-bromo-2-(2-ethyl-butoxy)-benzyl]-5-methyl-1H-pyrazole-4-carboxylic acid]	380	6100	80	600	2400
CCC(CC)COc1ccc(Br)cc1Cn1cc(C(=O)O)c(C)n1 [Example 3]	1300	≥ 10000	400	1100	1400
CCC(CC)COc1ccc(Cl)cc1Cn1cc(C(=O)O)cn1 [Example 4, 1-[5-chloro-2-(2-ethyl-butoxy)-benzyl]-1H-pyrazole-4-carboxylic acid]	4800	≥ 10000	2000	1400	3100
CCC(CC)COc1ccc(Cl)cc1Cn1nc(C)c(C(=O)O)c1C [Example 5, 1-[5-chloro-2-(2-ethyl-butoxy)-benzyl]-3,5-dimethyl-1H-pyrazole-4-carboxylic acid]	860	≥ 10000	700	350	600
CCCc1nn(Cc2cc(Cl)ccc2OCC(CC)CC)cc1C(=O)O [Example 6, 1-[5-chloro-2-(2-ethyl-butoxy)-benzyl]-3-propyl-1H-pyrazole-4-carboxylic acid]	4900	≥ 10000	≥ 10000	5600	≥ 10000
CCCc1c(C(=O)O)cnn1Cc1cc(Cl)ccc1OCC(CC)CC [Example 7, 1-[5-chloro-2-(2-ethyl-butoxy)-benzyl]-5-propyl-1H-pyrazole-4-carboxylic acid]	3300	≥ 10000	≥ 10000	≥ 10000	1800
CCC(CC)COc1ccc(C(F)(F)F)cc1Cn1ncc(C(=O)O)c1C [Example 8, 1-[2-(2-ethyl-butoxy)-5-trifluoromethyl-benzyl]-5-methyl-1H-pyrazole-4-carboxylic acid]	1600	≥ 10000	200	1400	≥ 10000
CCC(CC)COc1ccc(C(F)(F)F)cc1Cn1cc(C(=O)O)c(C)n1 [Example 9, 1-[2-(2-ethyl-butoxy)-5-trifluoromethyl-benzyl]-3-methyl-1H-pyrazole-4-carboxylic acid]	≥ 10000	≥ 10000	7200	3900	≥ 10000
CCC(CC)COc1ccc(Cl)cc1Cn1ncc(C(=O)O)c1C [Example 10, 1-[5-chloro-2-(2-ethyl-butoxy)-benzyl]-5-methyl-1H-pyrazole-4-carboxylic acid]	500	3900	190	940	1300
Cc1c(C(=O)O)cnn1Cc1cc(Cl)ccc1OCC(C)C [Example 11, 1-(5-chloro-2-isobutoxy-benzyl)-5-methyl-1-pyrazole-4-carboxylic acid]	3300	≥ 10000	500	4550	8300
Cc1c(C(=O)O)cnn1Cc1cc(Cl)ccc1OCC1CCCC1 [Example 12, 1-(5-chloro-2-cyclopentylmethoxy-benzyl)-5-methyl-1H-pyrazole-4-carboxylic acid]	600	≥ 10000	110	2500	2650
Cc1c(C(=O)O)cnn1Cc1cc(Br)ccc1OCC(C)C [Example 13, 1-(5-bromo-2-isobutoxy-benzyl)-5-methyl-1H-pyrazole-4-carboxylic acid]	2100	≥ 10000	70	3500	7700
Cc1c(C(=O)O)cnn1Cc1cc(Br)ccc1OCC(C)(C)C [Example 14, 1-[5-bromo-2-(2,2-dimethyl-propoxy)-benzyl]-5-methyl-1H-pyrazole-4-carboxylic acid]	1300	≥ 10000	90	3400	≥ 10000
CCC(CC)COc1ccc(OC(F)(F)F)cc1Cn1ncc(C(=O)O)c1C [Example 15, 1-[2-(2-ethyl-butoxy)-5-trifluoromethoxy-benzyl]-5-methyl-1H-pyrazole-4-carboxylic acid]	1500	≥ 10000	140	780	≥ 10000
CCC(CC)COc1ccc(Br)cc1Cn1ncc(C(=O)O)c1N [Example 16, 5-amino-1-[5-bromo-2-(2-ethyl-butoxy)-benzyl]-1H-pyrazole-4-carboxylic acid]	300	≥ 10000	200	1600	5100
